Test results published in US20150296781A1, “ACRYLATE/METHACRYLATE-BASED TRIBLOCK COPOLYMER/ANTHRANILIC DIAMIDE COMPOSITIONS FOR PROPAGULE COATING” (priority 2013, published 2015).

System: 2nd instar larva of Spodoptera frugiperda
Assay: Laboratory test with 2nd instar larva of Spodoptera frugiperda on maize leaves
Assay type: in vivo

CNC(=O)c1cc(Cl)cc(C)c1NC(=O)c1cc(Br)nn1-c1ncccc1Cl [Compound 2, 3-bromo-N-[4-chloro-2-methyl-6-[(methylamino)carbonyl]phenyl]-1-(3-chloro-2-pyridinyl)-1H-pyrazole-5-carboxamide]
concentration per g of leaf tissue resulting in 50% mortality within 72 h: 0.033 micrograms per g of leaf tissu
concentration per g of tissue needed to achieve 100% mortality within 72 h: 0.037 micrograms per g of tissue
